The text below walks through data of patent publication US9938257B2 (Sunshine Lake Pharma Co., Ltd., priority 2015, dated 2018).

The nature of series [1]: Compound stability in human liver microsomes. Particulars: pH 7.4; for half-life at 5 μM: human liver microsomes 0.5 mg protein/mL, compound 5 μM, NADPH 1.0 mM, 37° C., read-out: Human T1/2; for CLint scaled at 5 μM: human liver microsomes, in vivo CLint extrapolated. Format: in vitro ADME. The procedure:
(§1) Human or rat liver microsomes incubations were conducted in duplicate in polypropylene tubes. The typical incubation mixtures consisted of human or rat liver microsomes (0.5 mg protein/mL), compounds of interest (5 μM) and NADPH (1.0 mM) in a total volume of 200 μL potassium phosphate buffer (PBS, 100 mM, pH 7.4). Compounds were dissolved in DMSO and diluted with PBS such that the final concentration of DMSO was 0.05%. The enzymatic reactions were commenced with the addition of protein after a 3-min preincubation and incubated in a water bath open to the air at 37° C. Reactions were terminated at various time points (0, 5, 10, 15, 30, 60 min) by adding equal volume of ice-cold acetonitrile. The samples were stored at −80° C. until LC/MS/MS assays.
(§2) The concentrations of compounds in the incubation mixtures of human or rat liver microsomes were determined by a LC/MS/MS method. The ranges of the linearity in the concentration range were determined for each tested compounds.
(§3) A parallel incubation was performed using denatured microsomes as the negative control, and reactions were terminated at various time points (0, 15, 60 min) after incubation at 37° C.
(§4) Dextromethorphan (70 μM) was selected as the positive control, and reactions were terminated at various time points (0, 5, 10, 15, 30, 60 min) after incubation at 37° C. Both positive and negative control samples were included in each assay to ensure the integrity of the microsomal incubation system.
(§5) The concentrations of compounds in human or rat liver microsome incubations were plotted as a percentage of the relevant zero time point control for each reaction. The in vivo CLint were extrapolated (ref.: Naritomi, Y.; Terashita, S.; Kimura, S.; Suzuki, A.; Kagayama, A.; and Sugiyama, Y.; Prediction of human hepatic clearance from in vivo animal experiments and in vitro metabolic studies with liver microsomes from animals and humans. Drug Metab. Dispos., 2001, 29: 1316-1324).

Series [2] is described as follows: Compound stability in rat liver microsomes. The note with it: pH 7.4; for half-life at 5 μM: rat liver microsomes 0.5 mg protein/mL, compound 5 μM, NADPH 1.0 mM, 37° C., read-out: Rat T1/2; for CLint scaled at 5 μM: rat liver microsomes, in vivo CLint extrapolated. The class given is in vitro ADME. The procedure: as §1, §2, §3, §4, §5
Series [3] is described as follows: Pharmacokinetics after intravenous and oral administration in rats. The class given is in vivo. Particulars: for F: oral bioavailability; for AUC(0-t) / half-life / Vd: rat, plasma; for Vd: read-out: Vss. Here is the method: The compounds disclosed herein are assessed in pharmacokinetic studies in mice, rats, dogs or monkeys. The compounds are administered as a water solution, 2% HPMC+1% TWEEN®80 in water solution, 5% DMSO+5% solutol in saline, 4% MC suspension or capsule. For the intravenous administration, the animals are generally given at 0.5, 1 or 2 mg/kg dose. For the oral (p.o.) dosing, mice and rats are generally given 0.5, 1, 5 or 10 mg/kg dose, and dogs and monkeys are generally given 10 mg/kg dose. The blood samples (0.3 mL) are drawn at 0.25, 0.5, 1.0, 2.0, 3.0, 4.0, 6.0, 8.0, 12 and 24 h time points or 0.083, 0.25, 0.5, 1.0, 2.0, 4.0, 6.0, 8.0 and 24 h time points and centrifuged at 3,000 or 4000 rpm for 2 to 10 min. The plasma solutions are collected, and stored at −20° C. or −70° C. until analyzed by LC/MS/MS as described above.

Read-outs that look alike come from different tables or passages of the source.

For orientation: CLint scaled means a measure of how fast metabolising enzymes remove a compound, apart from limits set by blood flow. A word on the AUC(0-t): it is exposure summed from dosing to a finite time, without extrapolation to infinity. A low value points to low exposure.

As for `CC(=O)N1CC2CC(Nc3nc(Nc4cnn(C5CCNCC5)c4)ncc3Cl)CC2C1` (centres unmarked) [Ex. 6, 1-(5-((5-chloro-2-((1-(piperidin-4-yl)-1H-pyrazol-4-yl)amino)pyrimidin-4-yl)amino)hexahydrocyclopenta[c]pyrrol-2(1H)-yl)ethanone], the half-life at 5 μM in series [1] is 660 min; in series [2], 2640 min. Further, the CLint scaled at 5 μM was 2.63 mL/min/kg in series [1] and 0.94 mL/min/kg in series [2].
For the compound `CC(=O)N1CC2CC(CC#N)(Nc3nc(Nc4cnn(C)c4)ncc3Cl)CC2C1` (centres unmarked) [Ex. 48, 2-(2-acetyl-5-((5-chloro-2-((1-methyl-1H-pyrazol-4-yl)amino)pyrimidin-4-yl)amino)octahydrocyclopenta[c]pyrrol-5-yl)acetonitrile], in series [1], the half-life at 5 μM is 310 min and the intrinsic metabolic clearance (CLint scaled) at 5 μM is 5.6 mL/min/kg. Besides, in series [3] (iv dosing, dose 1 mg/kg), the “Clearance (CL) after iv dosing” value is 34.7 mL/min/kg, the AUC(0-t) came to 485 ng·h/mL, the half-life is 43.2 min and the Vd was 0.81 L/kg. In series [3] (iv dose 1 mg/kg), the F is listed as 40.7%. In series [2], the half-life at 5 μM was 100 min and the intrinsic metabolic clearance (CLint scaled) at 5 μM is 24.8 mL/min/kg.
As for `Cn1cc(Nc2ncc(Cl)c(NC3CCC4(CC3)CCN(S(=O)(=O)C3CC3)CC4)n2)cn1`, in series [1], the half-life at 5 μM was 61 min and the CLint scaled at 5 μM is 28.5 mL/min/kg. In addition, in series [3] (iv dosing, dose 1 mg/kg), the Cl/F was determined as 46.3 mL/min/kg, the AUC(0-t) was found to be 363 ng·h/mL, the half-life was 37.2 min and the Vd came to 2.07 L/kg. The compound also yielded a F in series [3] (iv dose 1 mg/kg) of 64.4%. For the same compound, in series [2], the half-life at 5 μM is 30 min and the CLint scaled at 5 μM was 82.7 mL/min/kg.
Regarding `CC(=O)N1CC2CC(Nc3nc(Nc4cnn(C5CCCNC5)c4)ncc3Cl)CC2C1` (centres unmarked) [Ex. 4, 1-(5-((5-chloro-2-((1-(piperidin-3-yl)-1H-pyrazol-4-yl)amino)pyrimidin-4-yl)amino)hexahydrocyclopenta[c]pyrrol-2(1H)-yl)ethanone], in series [1], the half-life at 5 μM was determined as 951 min and the CLint scaled at 5 μM is 1.83 mL/min/kg. For the same compound, in series [2], the half-life at 5 μM was determined as 68.7 min and the CLint scaled at 5 μM is 36.1 mL/min/kg.
The corresponding values for `CC(O)Cn1cc(Nc2nccc(NC3CC4CN(C(=O)NC5CC5)CC4C3)n2)cn1` (centres unmarked) [Ex. 42, N-cyclopropyl-5-((2-((1-(2-hydroxypropyl)-1H-pyrazol-4-yl)amino)pyrimidin-4-yl)amino)hexahydrocyclopenta[c]pyrrole-2(1H)-carboxamide] are 153 min, 11.3 mL/min/kg, 375 min and 6.6 mL/min/kg.
With `Cn1cc(Nc2ncc(Cl)c(NC3CC4CN(C(=O)N5CCOCC5)CC4C3)n2)cn1` (centres unmarked) [Ex. 29, (5-((5-chloro-2-((1-methyl-1H-pyrazol-4-yl)amino)pyrimidin-4-yl)amino)hexahydrocyclopenta[c]pyrrol-2(1H)-yl)(morpholino)methanone], in series [1], the half-life at 5 μM is 43.2 min and the CLint scaled at 5 μM was 40.2 mL/min/kg. Also, in series [3] (iv dosing, dose 1 mg/kg), the “Clearance (CL) after iv dosing” value was determined as 40.3 mL/min/kg, the AUC(0-t) is 413 ng·h/mL, the half-life is 21 min and the Vd was determined as 1.19 L/kg. Also, the F in series [3] (iv dose 1 mg/kg) was 102.8%. Besides, in series [2], the half-life at 5 μM was determined as 19.8 min and the CLint scaled at 5 μM is 126 mL/min/kg.
In the case of `Cn1cc(Nc2ncc(Cl)c(NC3CCC4(CC3)CCN(C(=O)CC3CC3)CC4)n2)cn1` [Ex. 20, 1-(9-((5-chloro-2-((1-methyl-1H-pyrazol-4-yl)amino)pyrimidin-4-yl)amino)-3-azaspiro[5.5]undecan-3-yl)-2-cyclopropyl ethanone], in series [3] (iv dosing, dose 0.5 mg/kg), the “Clearance (CL) after iv dosing” value worked out at 24.7 mL/min/kg, the AUC(0-t) was 348 ng·h/mL, the half-life was 42 min and the Vd was determined as 1.07 L/kg. The compound also showed a F in series [3] (iv dose 0.5 mg/kg) of 91.2%.
Consider `Cn1cc(Nc2ncc(Cl)c(NC3CC4CN(C(=O)c5ccccc5)CC4C3)n2)cn1` (centres unmarked) [Ex. 27, (5-((5-chloro-2-((1-methyl-1H-pyrazol-4-yl)amino)pyrimidin-4-yl)amino)hexahydrocyclopenta[c]pyrrol-2(1H)-yl)(phenyl)methanone], for which, in series [3] (iv dosing, dose 1 mg/kg), the “Clearance (CL) after iv dosing” value was 77.7 mL/min/kg, the AUC(0-t) came out at 218 ng·h/mL, the half-life is 13.2 min and the Vd was 0.93 L/kg. In series [3] (iv dose 1 mg/kg), this compound returned an F of 22.5%.
On to `Cn1cc(Nc2ncc(Cl)c(NC3CC4CN(C(=O)Nc5ccccc5)CC4C3)n2)cn1` (centres unmarked) [Ex. 28, 5-((5-chloro-2-((1-methyl-1H-pyrazol-4-yl)amino)pyrimidin-4-yl)amino)-N-phenylhexahydrocyclopenta[c]pyrrole-2(1H)-carboxamide], for which, in series [1], the half-life at 5 μM worked out at 24.2 min and the CLint scaled at 5 μM is 72 mL/min/kg. In series [3] (iv dosing, dose 1 mg/kg), the “Clearance (CL) after iv dosing” value was 99.2 mL/min/kg, the AUC(0-t) came out at 168 ng·h/mL, the half-life is 22.8 min and the Vd amounted to 1.99 L/kg. The F in series [3] (iv dose 1 mg/kg) was 42.0%. Besides, in series [2], the half-life at 5 μM was 3.6 min and the CLint scaled at 5 μM is 690 mL/min/kg.
In the case of `N#CCC(=O)N1CC2CC(Nc3nc(Nc4cnn(C5CCCNC5)c4)ncc3Cl)CC2C1` (centres unmarked) [Ex. 3, 3-(5-((5-chloro-2-((1-(piperidin-3-yl)-1H-pyrazol-4-yl)amino)pyrimidin-4-yl)amino)hexahydrocyclopenta[c]pyrrol-2(1H)-yl)-3-oxopropanenitrile], in series [1], the half-life at 5 μM was 555 min and the CLint scaled at 5 μM was 3.13 mL/min/kg. For the same compound, in series [2], the half-life at 5 μM stood at 3.88 min and the CLint scaled at 5 μM was 639 mL/min/kg.
Consider `CC(=O)N1CCC2(CCC(Nc3nc(Nc4cnn(C5CCNCC5)c4)ncc3Cl)CC2)CC1` [Ex. 33, 1-(9-((5-chloro-2-((1-(piperidin-4-yl)-1H-pyrazol-4-yl)amino)pyrimidin-4-yl)amino)-3-azaspiro[5.5]undecan-3-yl)ethanone], for which the half-life at 5 μM is 275 min in series [1] and 321 min in series [2]. Besides, the CLint scaled at 5 μM in series [1] was 6.32 mL/min/kg; in series [2], 7.73 mL/min/kg.
The corresponding values for `CC(C)(O)Cn1cc(Nc2ncc(Cl)c(NC3CC4CN(C(=O)NC5CC5)CC4C3)n2)cn1` (centres unmarked) [Ex. 36, 5-((5-chloro-2-((1-(2-hydroxy-2-methylpropyl)-1H-pyrazol-4-yl)amino)pyrimidin-4-yl)amino)-N-cyclopropylhexahydrocyclopenta[c]pyrrole-2(1H)-carboxamide] are 69.2 min, 30.7 min, 25.1 mL/min/kg and 81 mL/min/kg.
Consider `N#CCC(=O)N1CC2CC(Nc3nc(Nc4cnn(C5CCNCC5)c4)ncc3Cl)CC2C1` (centres unmarked) [Ex. 5, 3-(5-((5-chloro-2-((1-(piperidin-4-yl)-1H-pyrazol-4-yl)amino)pyrimidin-4-yl)amino)hexahydrocyclopenta[c]pyrrol-2(1H)-yl)-3-oxopropanenitrile], for which, in series [1], the half-life at 5 μM came to 1040 min and the CLint scaled at 5 μM was 1.66 mL/min/kg.
Turning to `COc1ccc(-n2cc(Nc3ncc(Cl)c(NC4CC5CN(C(C)=O)CC5C4)n3)cn2)cn1` (centres unmarked) [Ex. 11, 1-(5-((5-chloro-2-((1-(6-methoxypyridin-3-yl)-1H-pyrazol-4-yl)amino)pyrimidin-4-yl)amino)hexahydrocyclopenta[c]pyrrol-2(1H)-yl)ethanone], in series [3] (iv dosing, dose 1 mg/kg), the “Clearance (CL) after iv dosing” value was found to be 75.3 mL/min/kg, the AUC(0-t) worked out at 235 ng·h/mL, the half-life was 18 min and the Vd was found to be 1.22 L/kg. This compound displayed a F in series [3] (iv dose 1 mg/kg) of 19.5%.
